Literature values, collected in US20100272830A1, “Biocide Combination for use in Agricultural Applications” (Industrie De Nora S.p.A., priority 2008, published 2010).
Read-outs that look alike come from different tables or passages of the source.

HClO, % of total hypochlorite concentration (pH 5, 25° C.): 99.7% | HClO, % of total hypochlorite concentration (pH 6, 25° C.): 96.9% | HClO, % of total hypochlorite concentration (pH 7, 25° C.): 76.0% | HClO, % of total hypochlorite concentration (pH 8, 25° C.): 24% | HClO, % of total hypochlorite concentration (pH 9, 25° C.): 3.1% | HClO, % of total hypochlorite concentration (pH 10, 25° C.): 0.31% | HClO, % of total hypochlorite concentration (pH 11, 25° C.): 0.03% | HClO, % of total hypochlorite concentration (pH 12, 25° C.): 0.003%
SMILES: OCl [Hypochlorous acid (HClO), Hypochlorous acid]
